Results on 23 compounds are retold here after patent US20100311714A1, “1H-IMIDAZO[4,5-c]QUINOLINONE COMPOUNDS” (priority 2009, published 2010).

Data set [1] relates to PKB Ser473 phosphorylation in Rat1-myr-HA-p110 delta cells. The data set can be described thus: Reverse protein array, PKB Ser473 phosphorylation in Rat1-myr-HA-p110 delta cells. Type of data set: cell-based. The note with it: Rattus norvegicus, 0.5 h, 30 minutes compound incubation, read-out: p-PKB/IC50_delta.
Another data set deals with T1, mTOR (Homo sapiens, UniProt P42345).
T1 construct: purchased Invitrogen Corporation (Carlsbad/Calif., USA) PV4753
The data set can be described thus: Biochemical assay for m-TOR by TR-FRET. On the procedure:
Biochemical Assay for m-TOR by TR-FRET.
Assay components are purchased from Invitrogen Corporation (Carlsbad/Calif., USA): GFP-4EBP1 (Cat. No. PV4759), Tb3+-α-p4EBP1 [pThr46] Antibody (Cat. No. PV4757), proprietary TR-FRET dilution buffer (Cat. No. PV3574), mTOR protein (Cat. No. PV4753).
50 nL of compound dilutions (final concentration of 10, 3.0, 1.0, 0.3, 0.1, 0.03, 0.01 and 0.003 μM) are dispensed onto black 384-well low volume non-binding polystyrene (Cat. No. NBS#3676, Corning, Lowell/Mass., USA). Then 5 μL of ATP (8 μM final concentration) and GFP-4EBP1 (400 nM final concentration) with 5 μL mTOR proteins (0.5 nM final concentration) are incubated at rt. The standard reaction buffer for the TR-FRET mTOR assay contained 50 mM HEPES pH 7.5, 10 mM MnCl2, 50 mM NaCl, 1 mM EGTA, 1 mM DTT. Reactions were stopped with 10 μL of a mixture of EDTA containing the Tb3+-α-p4EBP1[pT46] detection Ab (0.5 nM) in TR-FRET dilution buffer (proprietary to IVG). Plates are read 15 mins later in a Synergy2 reader using an integration time of 0.2 seconds and a delay of 0.1 seconds. Control for the 100% inhibition of the kinase reaction is performed by replacing the mTOR kinase by the standard reaction buffer. The control for the 0% inhibition is given by the solvent vehicle of the compounds (90% DMSO in H2O). A standard compound is used as a reference compound and included in all assay plates in the form of 16 dilution points in duplicate.
(Time-resolved FRET reads energy transfer from a long-lived donor to a nearby acceptor.)

Data set [2] is described as follows: Parallel Artificial Membrane Permeability Assay (PAMPA) at pH 6.8. Type of data set: physicochemical. The source says:
The physicochemical properties of relevance for the absorption of the compound, such as the solubility and the membrane permeability, especially at a pH close to neutral pH can be measured using the procedure as described by L. ZHOU et al. in JOURNAL OF PHARMACEUTICAL SCIENCES, VOL. 96, NO. 11, p. 3052-3071 (2007) for the solubility at pH 6.8 and the procedure as described by F. Wohnsland and B. Faller in Journal of Medicinal Chemistry Vol 44, p. 923-930 (2001) for the Parallel Artificial Membrane Permeability Assay (PAMPA) at pH 6.8.
The following permeability log Pe was measured for compound of formula (I) as exemplified below: […]

Read-outs that look alike come from different tables or passages of the source.

T1 sequence (P42345 1360-2549 limits assumed): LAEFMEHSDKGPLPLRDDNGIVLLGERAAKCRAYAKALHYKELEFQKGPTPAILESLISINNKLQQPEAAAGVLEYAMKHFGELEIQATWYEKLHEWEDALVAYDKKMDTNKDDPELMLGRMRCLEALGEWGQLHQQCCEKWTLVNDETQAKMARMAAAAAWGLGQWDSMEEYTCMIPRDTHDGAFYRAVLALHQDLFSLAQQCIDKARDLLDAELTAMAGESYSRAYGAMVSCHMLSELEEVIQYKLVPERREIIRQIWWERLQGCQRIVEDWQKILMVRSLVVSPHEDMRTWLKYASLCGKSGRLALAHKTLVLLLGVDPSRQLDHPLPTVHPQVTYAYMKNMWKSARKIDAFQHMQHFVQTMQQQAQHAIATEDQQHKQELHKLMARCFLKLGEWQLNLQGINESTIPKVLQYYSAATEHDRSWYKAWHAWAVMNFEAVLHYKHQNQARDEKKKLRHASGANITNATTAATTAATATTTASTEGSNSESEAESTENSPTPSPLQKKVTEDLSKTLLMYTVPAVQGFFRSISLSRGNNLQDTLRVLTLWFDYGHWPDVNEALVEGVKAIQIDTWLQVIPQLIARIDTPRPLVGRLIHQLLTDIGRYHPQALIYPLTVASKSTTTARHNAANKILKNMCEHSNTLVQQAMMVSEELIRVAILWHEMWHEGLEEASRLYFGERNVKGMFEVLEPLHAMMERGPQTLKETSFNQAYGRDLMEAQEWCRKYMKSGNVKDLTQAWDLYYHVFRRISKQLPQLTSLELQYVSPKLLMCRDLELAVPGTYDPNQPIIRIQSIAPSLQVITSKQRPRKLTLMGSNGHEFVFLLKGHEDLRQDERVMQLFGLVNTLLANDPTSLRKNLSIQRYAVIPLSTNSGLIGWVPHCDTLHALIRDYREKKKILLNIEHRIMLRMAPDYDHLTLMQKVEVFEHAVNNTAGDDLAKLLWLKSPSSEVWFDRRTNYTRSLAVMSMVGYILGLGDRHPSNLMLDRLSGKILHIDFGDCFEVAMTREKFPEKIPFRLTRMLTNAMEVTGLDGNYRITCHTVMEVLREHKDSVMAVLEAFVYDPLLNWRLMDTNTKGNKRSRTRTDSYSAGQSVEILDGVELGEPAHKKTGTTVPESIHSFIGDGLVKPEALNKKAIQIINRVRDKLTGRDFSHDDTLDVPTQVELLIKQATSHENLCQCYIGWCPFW

As for `COc1ncccc1-n1c(=O)n(C)c2cnc3ccc(-c4ccc(C(N)=O)cc4)cc3c21` [Example 1.6, 4-[1-(2-Methoxy-pyridin-3-yl)-3-methyl-2-oxo-2,3-dihydro-1H-imidazo[4,5-c]quinolin-8-yl]-benzamide], the figures for the IC50 (in data set [1]; at mTOR (read-out: mTOR/IC50)) were 29.3 nM and 10 nM, respectively.

Turning to `Cc1ncccc1-n1c(=O)n(C)c2cnc3ccc(-c4ccc(C(N)=O)cc4)cc3c21` [Example 2.3, 4-[3-Methyl-1-(2-methyl-pyridin-3-yl)-2-oxo-2,3-dihydro-1H-imidazo[4,5-c]quinolin-8-yl]-benzamide], the IC50 in data set [1] was found to be 23.6 nM; at mTOR (read-out: mTOR/IC50) it was 11 nM.

On to `Cc1ncccc1-n1c(=O)n(C)c2cnc3ccc(-c4ccc(CO)nc4)cc3c21` [Example 2.6, 8-(6-Hydroxymethyl-pyridin-3-yl)-3-methyl-1-(2-methyl-pyridin-3-yl)-1,3-dihydro-imidazo[4,5-c]quinolin-2-one], for which the IC50 in data set [1] stood at 74.7 nM; at mTOR (read-out: mTOR/IC50), 104 nM.

For the compound `Cc1ncccc1-n1c(=O)n(C)c2cnc3ccc(-c4ccc(N)nc4)cc3c21` [Example 2.7, 8-(6-Amino-pyridin-3-yl)-3-methyl-1-(2-methyl-pyridin-3-yl)-1,3-dihydro-imidazo[4,5-c]quinolin-2-one], the IC50 came to 12.2 nM in data set [1] and 18 nM on mTOR (read-out: mTOR/IC50).

For `Cc1ncccc1-n1c(=O)n(C)c2cnc3ccc(-c4ccc(OCCCN(C)C)nc4)cc3c21` [Example 2.10, 8-[6-(3-Dimethylamino-propoxy)-pyridin-3-yl]-3-methyl-1-(2-methyl-pyridin-3-yl)-1,3-dihydro-imidazo[4,5-c]quinolin-2-one], the figures for the IC50 (in data set [1]; at mTOR (read-out: mTOR/IC50)) were 227 nM and 600 nM, respectively.

With `CCOc1ncc(-c2ccc3ncc4c(c3c2)n(-c2ncccc2C)c(=O)n4C)cn1` [Example 3.1, 8-(2-Ethoxy-pyrimidin-5-yl)-3-methyl-1-(3-methyl-pyridin-2-yl)-1,3-dihydro-imidazo[4,5-c]quinolin-2-one], the “HT-perm/logPe pH6.8” value in data set [2] is on record as −3.8.

For `Cc1cccnc1-n1c(=O)n(C)c2cnc3ccc(-c4ccc(C(N)=O)cc4)cc3c21` [Example 3.3, 4-[3-Methyl-1-(3-methyl-pyridin-2-yl)-2-oxo-2,3-dihydro-1H-imidazo[4,5-c]quinolin-8-yl]-benzamide], the results for the IC50 (in data set [1]; at mTOR (read-out: mTOR/IC50)) were 620 nM and 345 nM, respectively.

`CNC(=O)c1ccc(-c2ccc3ncc4c(c3c2)n(-c2ncccc2C)c(=O)n4C)cc1` [Example 3.5, N-Methyl-4-[3-methyl-1-(3-methyl-pyridin-2-yl)-2-oxo-2,3-dihydro-1H-imidazo[4,5-c]quinolin-8-yl]-benzamide]: the results for the IC50 (in data set [1]; at mTOR (read-out: mTOR/IC50)) were 458 nM and 331 nM, respectively.

With `COc1ccc(-c2ccc3ncc4c(c3c2)n(-c2ncccc2C)c(=O)n4C)cc1OC` [Example 3.10, 8-(3,4-Dimethoxy-phenyl)-3-methyl-1-(3-methyl-pyridin-2-yl)-1,3-dihydro-imidazo[4,5-c]quinolin-2-one], the IC50 in data set [1] is 479 nM. Also, the “HT-perm/logPe pH6.8” value in data set [2] is reported as −3.8.

Turning to `Cc1cccnc1-n1c(=O)n(C)c2cnc3ccc(-c4ccc(N(C)C)nc4)cc3c21` [Example 3.11, 8-(6-Dimethylamino-pyridin-3-yl)-3-methyl-1-(3-methyl-pyridin-2-yl)-1,3-dihydro-imidazo[4,5-c]quinolin-2-one], the “HT-perm/logPe pH6.8” value in data set [2] is −3.4.

On to `Cc1ccncc1-n1c(=O)n(C)c2cnc3ccc(-c4ccc(CO)nc4)cc3c21` [Example 4.1, 8-(6-Hydroxymethyl-pyridin-3-yl)-3-methyl-1-(4-methyl-pyridin-3-yl)-1,3-dihydro-imidazo[4,5-c]quinolin-2-one], for which, in data set [2], the “HT-perm/logPe pH6.8” value is given as −6.1.

For `CCOc1ccc(-c2ccc3ncc4c(c3c2)n(-c2cnccc2C)c(=O)n4C)cn1` [Example 4.2, 8-(6-Ethoxy-pyridin-3-yl)-3-methyl-1-(4-methyl-pyridin-3-yl)-1,3-dihydro-imidazo[4,5-c]quinolin-2-one], in data set [2], the “HT-perm/logPe pH6.8” value was −3.5.

For the compound `Cn1c(=O)n(-c2cccnc2)c2c3cc(-c4ccc(CO)nc4)ccc3ncc21` [Example 5.1, 8-(6-Hydroxymethyl-pyridin-3-yl)-3-methyl-1-pyridin-3-yl-1,3-dihydro-imidazo[4,5-c]quinolin-2-one], the IC50 in data set [1] was determined as 365 nM; on mTOR (read-out: mTOR/IC50) it was 351 nM.

For `CCOc1ccc(-c2ccc3ncc4c(c3c2)n(-c2ccc(N3CCNCC3)nc2OC)c(=O)n4C)cn1` [Example 9.1, 8-(6-Ethoxy-pyridin-3-yl)-1-(2-methoxy-6-piperazin-1-yl-pyridin-3-yl)-3-methyl-1,3-dihydro-imidazo[4,5-c]quinolin-2-one], the IC50 in data set [1] stood at 32.8 nM.

Regarding `COc1nc(N2CCNCC2)ccc1-n1c(=O)n(C)c2cnc3ccc(-c4cnc(N)c(C(F)(F)F)c4)cc3c21` [Example 9.2, 8-(6-Amino-5-trifluoromethyl-pyridin-3-yl)-1-(2-methoxy-6-piperazin-1-yl-pyridin-3-yl)-3-methyl-1,3-dihydro-imidazo[4,5-c]quinolin-2-one], the IC50 in data set [1] came out at 23.9 nM.

As to `Cc1nc(N2CCC2)ccc1-n1c(=O)n(C)c2cnc3ccc(-c4cncc(N5CCC5)c4)cc3c21` [Example 23.1, 1-(6-Azetidin-1-yl-2-methyl-pyridin-3-yl)-8-(5-azetidin-1-yl-pyridin-3-yl)-3-methyl-1,3-dihydro-imidazo[4,5-c]quinolin-2-one], the IC50 was found to be 66.9 nM in data set [1] and 9 nM at mTOR (read-out: EPK_mTOR/IC50).

For the compound `CNc1ccc(-c2ccc3ncc4c(c3c2)n(-c2ccc(N3CCC3)nc2C)c(=O)n4C)cn1` [Example 23.4, 1-(6-Azetidin-1-yl-2-methyl-pyridin-3-yl)-3-methyl-8-(6-methylamino-pyridin-3-yl)-1,3-dihydro-imidazo[4,5-c]quinolin-2-one], the IC50 in data set [1] is 23.8 nM; at mTOR (read-out: EPK_mTOR/IC50), 6 nM.

As for `COc1ncc(-c2ccc3ncc4c(c3c2)n(-c2ccc(N3CC(O)C3)nc2C)c(=O)n4C)c(OC)n1` [Example 29.6, 8-(2,4-Dimethoxy-pyrimidin-5-yl)-1-[6-(3-hydroxy-azetidin-1-yl)-2-methyl-pyridin-3-yl]-3-methyl-1,3-dihydro-imidazo[4,5-c]quinolin-2-one], the IC50 in data set [1] turned out to be 119 nM; on mTOR (read-out: EPK_mTOR/IC50) it was 11 nM.

For `CCOc1ccc(-c2ccc3ncc4c(c3c2)n(-c2ccc(C(C)(C)O)nc2C)c(=O)n4C)cn1` [Example 31.4, 8-(6-Ethoxy-pyridin-3-yl)-1-[6-(1-hydroxy-1-methyl-ethyl)-2-methyl-pyridin-3-yl]-3-methyl-1,3-dihydro-imidazo[4,5-c]quinolin-2-one], the “HT-Perm logPe pH6.8” value in data set [2] is listed as −3.7. In addition, on mTOR (read-out: EPK_mTOR/IC50), the IC50 came to 75 nM.

Consider `Cc1nc(C(C)(C)O)ccc1-n1c(=O)n(C)c2cnc3ccc(-c4cnc(N)c(C(F)(F)F)c4)cc3c21` [Example 31.5, 8-(6-Amino-5-trifluoromethyl-pyridin-3-yl)-1-[6-(1-hydroxy-1-methyl-ethyl)-2-methyl-pyridin-3-yl]-3-methyl-1,3-dihydro-imidazo[4,5-c]quinolin-2-one], for which the “HT-Perm logPe pH6.8” value in data set [2] is −4.3. Further, the IC50 on mTOR (read-out: EPK_mTOR/IC50) came to 6 nM.

Turning to `Cc1nc(C(C)(C)O)ccc1-n1c(=O)n(C)c2cnc3ccc(-c4cncc(C(C)(C)C#N)c4)cc3c21` [Example 31.6, 2-(5-{1-[6-(1-Hydroxy-1-methyl-ethyl)-2-methyl-pyridin-3-yl]-3-methyl-2-oxo-2,3-dihydro-1H-imidazo[4,5-c]quinolin-8-yl}-pyridin-3-yl)-2-methyl-propionitrile], the “HT-Perm logPe pH6.8” value in data set [2] is given as −4.4. Moreover, the IC50 at mTOR (read-out: EPK_mTOR/IC50) was determined as 95 nM.

As to `CCNc1ncc(-c2ccc3ncc4c(c3c2)n(-c2ccc(C(C)(C)O)nc2C)c(=O)n4C)cn1` [Example 31.7, 8-(2-Ethylamino-pyrimidin-5-yl)-1-[6-(1-hydroxy-1-methyl-ethyl)-2-methyl-pyridin-3-yl]-3-methyl-1,3-dihydro-imidazo[4,5-c]quinolin-2-one], the “HT-Perm logPe pH6.8” value in data set [2] is −4.6. Besides, the IC50 at mTOR (read-out: EPK_mTOR/IC50) amounted to 21 nM.

Consider `Cc1nc(C(C)(C)O)ccc1-n1c(=O)n(C)c2cnc3ccc(-c4cncc(C5(C#N)CCC5)c4)cc3c21` [Example 31.8, 1-(5-{1-[6-(1-Hydroxy-1-methyl-ethyl)-2-methyl-pyridin-3-yl]-3-methyl-2-oxo-2,3-dihydro-1H-imidazo[4,5-c]quinolin-8-yl}-pyridin-3-yl)-cyclobutanecarbonitrile], for which, in data set [2], the “HT-Perm logPe pH6.8” value was −4.3. The IC50 on mTOR (read-out: EPK_mTOR/IC50) came to 122 nM.
